Three molecules from patent US8552035B2, “Phenanthrenone compounds, compositions and methods” (Pfizer Inc., priority 2008, dated 2013) can be followed below.

Common to all, as to format: in vivo
The subject of one series is serum insulin. The series can be described thus: 28-day mouse side-effect model, serum insulin. To be noted: oral gavage 28 days; for ED50 at 28 days: female, Swiss Webster, read-out: Insulin (ED50 dose). Here is the method: (§1) 10-12 week old female Swiss Webster mice (Taconic, Germantown, N.Y., U.S.A.) weighing 27-29 grams are used in accordance with the guidelines of the Institutional Animal Care and Use Committee and in accordance with NIH guidelines on laboratory animal welfare. Mice are acclimated to the Pfizer animal facility for 3-7 days prior to being placed on study. Prednisolone and DAGR compounds are administered by oral gavage for a total of 28 days. Each treatment group generally contains 8-10 mice. To establish a dosing regimen for the studies, a pilot pharmacodynamic time course experiment is conducted to quantify TNFa repression after a single ED80 dose (determined from the acute LPS endotoxemia mouse model). […] DAGR compounds vary in their required frequency of doses.
(§2) Body weights are measured on the first and last day of each experiment. Blood samples are obtained after ˜3 weeks of dosing for steady-state pharmacokinetic analysis. To assess compound effects on LPS-induced TNF-a, all mice receive an intraperitoneal injection of LPS (Salmonella Typhosa, Sigma, St. Louis, L-7895) 2.5 hr after the last dose on day 28. Mice are sacrificed 90 min. after LPS administration. Serum samples are assayed for osteocalcin and TNFa using the Linco multiplex assay (St. Charles, Mo.) and Luminex 100 (Austin, Tex.). Samples are diluted 1:20 and the assay is run according to manufacturer's instructions. An osteocalcin standard is purchased separately from Biomedical Technologies Incorporated (Stoughton, Mass.). Serum insulin is measured to assess compound effects on insulin resistance. Insulin was measured using the UltraSensitive Mouse EIA kit from Alpco Diagnostics (Salem, N.H.) following the manufacturer's protocol.
(§3) ED50 and ED80 values are obtained for the various parameters using four-parameter logistic fits of data. For each experiment/dose group, outliers are detected by calculating the number of standard deviations each mouse's value was from the mean of their group and then dividing by the standard deviation of the group. The means and standard deviations used in this calculation omitted the value being examined so that, if it were an outlier, it would have no influence. If the value being examined is more than 2.5 standard deviations from the mean, it was not used in the rest of the calculations.
(§4) Percent inhibition values are then calculated for each animal using the means of the vehicle and 10 mpk prednisone control groups. The individual mouse percent inhibition values are then fit to a four-parameter logistic model using the area under curve mean for each group. Since all four parameters are estimated and the lower plateau is not fixed at 0% and the upper plateau was not fixed at 100%, the ED50 and ED80 values are calculated by using an inverse calibration formula for a response equal to 50% or 80%. The designation “nd” means not determined.

The subject of a further series is LPS-induced TNFα. The series can be described thus: 28-day mouse side-effect model, LPS-induced serum TNFα suppression. The conditions noted are these: oral gavage 28 days, LPS challenge; for ED50: 672 h, read-out: TNFα Suppression (ED50 dose). Here is the method:
as §1, §2, §3, §4

Series [1] has as its system Mouse collagen-induced arthritis. Briefly: Therapeutic mouse collagen-induced arthritis (mCIA). The conditions noted are these: for ED50: 816 h, dosing day 34 to 49, read-out: Therapeutic mCIA (ED50 dose); for Therapeutic mCIA (ED80 dose): dosing day 34 to 49.
Source text: Mouse Collagen-induced arthritis is a commonly used chronic, preclinical model of rheumatoid arthritis in which joint swelling and bone destruction occur following immunization with type II collagen. Reduction of disease incidence and severity has been shown previously to be predictive of disease-modification and signs and symptoms mitigation, respectively, in a clinical setting.
In the therapeutic mCIA model, induction of disease incidence and severity was synchronized via LPS stimulation. Male DBA/J mice were immunized with 100 ug of bovine type II collagen (bCII) on day 0. All mice received an intraperitoneal injection of 20 μg of LPS on day 28 and disease was allowed to develop through day 34. At day 34, all mice had disease (incidence=100%) with an average severity score of seven. Dosing of compounds was initiated in the therapeutic mode on day 34 and continued through day 49. Different treatments were compared by measuring the decrease in incidence (i.e., resolution of disease) and the decrease in severity of paw swelling over time.
as §3, §4

A further series concerns osteocalcin. Briefly: 28-day mouse side-effect model, serum osteocalcin suppression. To be noted: oral gavage 28 days; for ED50 at 28 days: female, Swiss Webster, read-out: Osteocalcin Suppression (ED50 dose). Here is the method: as §1, §2, §3, §4
The next series concerns bone formation rate. The series can be described thus: 28-day mouse side-effect model, cortical bone histomorphometry (bone formation rate). The conditions noted are these: oral gavage 28 days, tibia cortical bone formation rate; for ED50 at 28 days: female, Swiss Webster, read-out: BFR (ED50 dose). Here is the method:
as §1
During the in-life portion of each study, mice received two IP injections of the fluorochrome calcein (C-0875; Sigma-Aldrich; 20 mg/kg; 200 μL/mouse), dissolved in 2% sodium bicarbonate, on days 1 and 26 for bone histomorphometry measurements. Fluorochrome labels incorporate into the bone mineral and allow measurement of bone formation rate. During the tissue harvest, the left tibia is excised and cleaned for cortical histomorphometry measurements. After all skin and muscle are removed, tibiae are placed in 70% ethanol (4° C.) in the dark for a minimum of 24 hours.
Ground transverse sections are used for histomorphometric analysis of cortical bone^1. Bones are sectioned using a low speed saw (Isomet, Buehler, Lake Bluff, Ill.) equipped with a diamond wafer blade. The end of each tibia is removed proximal to tibia-fibula synostosis and a […] cross-section is cut. Using a roughened glass plate and a cork, sections are ground to […] until transparent and all labels distinguishable under a fluorescent microscope. Sections are dehydrated using the following solutions for a minimum of 2 minutes each: 1) 70% ethanol, 2) 95% ethanol, 3) 100% ethanol, 4) 50/50 ethanol/xylene, and 5) xylene (twice) (Sigma, St. Louis, 534056). Sections are mounted using Eukitt Quick Mounting Medium (Sigma, St. Louis, 03989) and cover-slipped. Using the Osteomeasure Bone Analysis Program (Decatur, Ga.), bone formation rate is calculated by tracing the 1st and 2nd fluorescent labels in addition to tracing the inner and outer perimeter of the bone. Bone formation rate is calculated by the following equation: (Interlabel Width/Label Interval)*(Labeled Perimeter/Bone Perimeter). At least 5 samples are measured from each treatment group in each study.
as §3, §4

Consider `Cc1ncccc1NC(=O)c1ccc2c(c1)CC[C@@H]1C[C@@](O)(c3ccccn3)[C@](C)(O)C[C@@]21Cc1ccccc1` [Comparator C, (4bR,6R,7R,8aR)-4b-benzyl-6,7-dihydroxy-6-methyl-N-(2-methylpyridin-3-yl)-7-(pyridin-2-yl)-4b,5,6,7,8,8a,9,10-octahydrophenanthrene-2-carboxamide], for which, in the series with serum insulin, the ED50 at 28 days was greater than 20 mg/kg and the “Insulin (ED80 dose)” value is on record as greater than 20. Moreover, in the series on LPS-induced TNFα, the ED50 was 3.08 mg/kg and the “TNFα Suppression (ED80 dose)” value worked out at 9.87. For the same molecule, in series [1], the median effective dose (ED50) was 0.8 mg/kg and the “Therapeutic mCIA (ED80 dose)” value is recorded as 2.9. Further, in the series on osteocalcin, the ED50 at 28 days was 3.68 mg/kg and the “Osteocalcin Suppression (ED80 dose)” value was greater than 20. In the series with bone formation rate, the median effective dose (ED50) at 28 days came out at 3.72 mg/kg and the “BFR (ED80 dose)” value came out at 7.88.
For the molecule `C[C@@]1(O)C[C@@]2(Cc3ccccc3)c3ccc(C(=O)NCc4cccnc4)cc3CC[C@@H]2C[C@@]1(O)c1ccccc1` [Comparator D, (4bR,6R,7R,8aR)-4b-benzyl-6,7-dihydroxy-6-methyl-7-phenyl-N-(pyridin-3-ylmethyl)-4b,5,6,7,8,8a,9,10-octahydrophenanthrene-2-carboxamide], in the series with serum insulin, the ED50 at 28 days was greater than 60 mg/kg and the “Insulin (ED80 dose)” value is greater than 60. In the series with LPS-induced TNFα, the ED50 was 11.4 mg/kg and the “TNFα Suppression (ED80 dose)” value is on record as 14.48. In addition, in the series with osteocalcin, the ED50 at 28 days is greater than 60 mg/kg and the “Osteocalcin Suppression (ED80 dose)” value is reported as greater than 60. Also, in the series on bone formation rate, the ED50 at 28 days was determined as 35.9 mg/kg and the “BFR (ED80 dose)” value was greater than 60.
With `Cc1ncccc1NC(=O)c1ccc2c(c1)CC[C@@H]1C[C@@](O)(C(F)(F)F)[C@](C)(O)C[C@@]21Cc1ccccc1` [Comparator E, (4bR,6R,7S,8aR)-4b-benzyl-6,7-dihydroxy-6-methyl-N-(2-methylpyridin-3-yl)-7-(trifluoromethyl)-4b,5,6,7,8,8a,9,10-octahydrophenanthrene-2-carboxamide], in the series with serum insulin, the ED50 at 28 days is greater than 1 mg/kg and the “Insulin (ED80 dose)” value is recorded as greater than 1. In addition, in the series on LPS-induced TNFα, the ED50 was greater than 1 mg/kg and the “TNFα Suppression (ED80 dose)” value is on record as greater than 1. Further, in series [1], the ED50 amounted to 0.13 mg/kg and the “Therapeutic mCIA (ED80 dose)” value came out at 1.15. Also, in the series with osteocalcin, the ED50 at 28 days was 0.78 mg/kg and the “Osteocalcin Suppression (ED80 dose)” value is listed as greater than 1. Besides, in the series on bone formation rate, the ED50 at 28 days is 0.28 mg/kg and the “BFR (ED80 dose)” value turned out to be 0.33.

Usually ED50 stands for the dose that gives a 50% effect, or the effect in half of the subjects.
